Experiment: xn = mol fraction of the nth substance listed
Conditions: 101 kPa

CCCCCCCCCCCCCCCC[n+]1ccccc1.O=C([O-])C(O)c1ccccc1 + C[C@H](N)C(=O)O + O
electrical conductivity [S/m]
Conditions | 293.15 K | 298.15 K | 303.15 K | 308.15 K | 313.15 K
x1 = 1.08e-06, x2 = 0 | 0.00061 | 0.00068 | 0.00076 | 0.00083 | 0.0009
x1 = 1.09e-06, x2 = 0.0009002 | 0.0006 | 0.00069 | 0.00077 | 0.00087 | 0.00098
x1 = 1.09e-06, x2 = 0.001799 | 0.00068 | 0.00078 | 0.00088 | 0.001 | 0.0011
x1 = 1.98e-06, x2 = 0 | 0.001 | 0.0012 | 0.0013 | 0.0014 | 0.0016
x1 = 2.17e-06, x2 = 0.0009002 | 0.00107 | 0.00122 | 0.0014 | 0.0015 | 0.0017
x1 = 2.18e-06, x2 = 0.001799 | 0.00104 | 0.0012 | 0.00135 | 0.0015 | 0.0017
x1 = 2.88e-06, x2 = 0 | 0.00147 | 0.0016 | 0.0018 | 0.002 | 0.0022
x1 = 3.26e-06, x2 = 0.0009002 | 0.0015 | 0.0017 | 0.0019 | 0.0021 | 0.0024
x1 = 3.45e-06, x2 = 0.001799 | 0.00147 | 0.00167 | 0.00187 | 0.0021 | 0.0024
x1 = 3.96e-06, x2 = 0 | 0.0019 | 0.0022 | 0.0024 | 0.0026 | 0.0029
x1 = 4.52e-06, x2 = 0.0009002 | 0.00197 | 0.0022 | 0.0025 | 0.0028 | 0.0031
x1 = 4.54e-06, x2 = 0.001799 | 0.0019 | 0.00216 | 0.0024 | 0.0027 | 0.003
x1 = 4.69e-06, x2 = 0 | 0.0023 | 0.0026 | 0.0029 | 0.0031 | 0.0035
x1 = 5.61e-06, x2 = 0.0009002 | 0.00243 | 0.00275 | 0.0031 | 0.0034 | 0.0038
x1 = 5.81e-06, x2 = 0.001799 | 0.00234 | 0.00265 | 0.0029 | 0.0033 | 0.0036
x1 = 5.95e-06, x2 = 0 | 0.00281 | 0.0032 | 0.0035 | 0.0038 | 0.0042
x1 = 6.87e-06, x2 = 0.0009002 | 0.00295 | 0.0033 | 0.0037 | 0.0041 | 0.0045
x1 = 7.21e-06, x2 = 0 | 0.00341 | 0.0038 | 0.0042 | 0.0046 | 0.0051
x1 = 7.26e-06, x2 = 0.001799 | 0.00287 | 0.00323 | 0.0036 | 0.004 | 0.0044
x1 = 8.32e-06, x2 = 0.0009002 | 0.00346 | 0.00391 | 0.0043 | 0.0048 | 0.0053
x1 = 8.71e-06, x2 = 0.001799 | 0.00335 | 0.00379 | 0.00423 | 0.0047 | 0.0052
x1 = 8.83e-06, x2 = 0 | 0.00406 | 0.0046 | 0.005 | 0.0055 | 0.006
x1 = 9.58e-06, x2 = 0.0009002 | 0.00394 | 0.00445 | 0.00497 | 0.0055 | 0.0061
x1 = 1.045e-05, x2 = 0 | 0.00469 | 0.0053 | 0.0058 | 0.0065 | 0.0071
x1 = 1.071e-05, x2 = 0.001799 | 0.0039 | 0.00441 | 0.00494 | 0.0055 | 0.0061
x1 = 1.121e-05, x2 = 0.0009002 | 0.00434 | 0.00493 | 0.00552 | 0.0062 | 0.0069
x1 = 1.207e-05, x2 = 0 | 0.00516 | 0.0058 | 0.0064 | 0.0071 | 0.0079
x1 = 1.216e-05, x2 = 0.001799 | 0.00419 | 0.00476 | 0.00533 | 0.00596 | 0.0067
x1 = 1.284e-05, x2 = 0.0009002 | 0.00475 | 0.0054 | 0.006 | 0.0067 | 0.0075
x1 = 1.351e-05, x2 = 0 | 0.00562 | 0.00631 | 0.007 | 0.0077 | 0.0085
x1 = 1.361e-05, x2 = 0.001799 | 0.00459 | 0.0052 | 0.00583 | 0.00654 | 0.0073
x1 = 1.411e-05, x2 = 0.0009002 | 0.00513 | 0.0058 | 0.00649 | 0.0072 | 0.0081
x1 = 1.478e-05, x2 = 0 | 0.00603 | 0.0068 | 0.0075 | 0.0083 | 0.0092
x1 = 1.506e-05, x2 = 0.001799 | 0.00495 | 0.00559 | 0.00626 | 0.007 | 0.0079
x1 = 1.519e-05, x2 = 0.0009002 | 0.00545 | 0.00616 | 0.0069 | 0.0077 | 0.0085
x1 = 1.622e-05, x2 = 0 | 0.00644 | 0.0072 | 0.008 | 0.0089 | 0.0098
x1 = 1.646e-05, x2 = 0.0009002 | 0.00578 | 0.00652 | 0.0073 | 0.0081 | 0.009
x1 = 1.651e-05, x2 = 0.001799 | 0.00526 | 0.00598 | 0.00669 | 0.0075 | 0.0083
x1 = 1.766e-05, x2 = 0 | 0.00687 | 0.0077 | 0.0085 | 0.0094 | 0.0104
x1 = 1.778e-05, x2 = 0.001799 | 0.00557 | 0.00629 | 0.00707 | 0.0079 | 0.0088

Source: the CheMixHub ionic liquid set
